The results in this text go back to ChEMBL document CHEMBL4837249, “Discovery of Potent Antiallergic Agents Based on an o-Aminopyridinyl Alkynyl Scaffold” (J Med Chem, 2021).

For assay [1], the target named is Macrophage colony-stimulating factor 1 receptor (Homo sapiens, UniProt P07333). Nature of the assay: Inhibition of human recombinant CSF1R using ATP/Ulight-TK peptide at 5 nM incubated for 15 mins relative to control.
The target of assay [2] is Proto-oncogene tyrosine-protein kinase Src (Homo sapiens, UniProt P12931). Description: Inhibition of human recombinant Src (1-530) at 50 nM by radiometric scintillation counting analysis relative to control.
Assay [3] deals with Tyrosine-protein kinase SYK (Homo sapiens) (UniProt P43405). Nature of the assay: Inhibition of human full length recombinant Syk at 500 nM by radiometric scintillation counting analysis relative to control.
Assay [4] concerns the target T1, Tyrosine-protein kinase ITK/TSK (Homo sapiens) (UniProt Q08881).
T1 sequence (whole entry): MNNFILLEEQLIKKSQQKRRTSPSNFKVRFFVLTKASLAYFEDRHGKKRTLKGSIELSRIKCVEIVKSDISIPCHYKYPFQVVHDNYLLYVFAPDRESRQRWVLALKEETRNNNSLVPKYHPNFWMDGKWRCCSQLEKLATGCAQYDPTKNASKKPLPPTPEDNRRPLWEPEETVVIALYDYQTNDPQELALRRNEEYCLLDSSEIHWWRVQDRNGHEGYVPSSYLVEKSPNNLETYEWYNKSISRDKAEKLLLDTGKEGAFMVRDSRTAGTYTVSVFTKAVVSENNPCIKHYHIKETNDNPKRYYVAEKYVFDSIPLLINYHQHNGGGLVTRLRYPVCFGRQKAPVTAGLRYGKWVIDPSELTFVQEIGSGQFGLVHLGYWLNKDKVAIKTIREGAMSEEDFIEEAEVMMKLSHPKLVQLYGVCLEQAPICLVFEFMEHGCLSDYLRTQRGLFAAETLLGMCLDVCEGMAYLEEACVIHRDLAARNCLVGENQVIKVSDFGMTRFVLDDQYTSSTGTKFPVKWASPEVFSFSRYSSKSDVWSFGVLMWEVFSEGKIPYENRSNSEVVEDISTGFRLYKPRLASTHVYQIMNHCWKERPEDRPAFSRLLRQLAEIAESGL
Description: Inhibition of human recombinant ITK (352 to 617) at 500 nM by radiometric scintillation counting analysis relative to control.

The target in assay [5] is Tyrosine-protein kinase Lck (Homo sapiens, UniProt P06239). Description: Inhibition of human full length recombinant LCK at 50 nM by radiometric scintillation counting analysis relative to control.
Assay [6] addresses Tyrosine-protein kinase HCK (Homo sapiens, UniProt P08631). Nature of the assay: Inhibition of human recombinant HCK (230 to 497) at 500 nM by radiometric scintillation counting analysis relative to control.
For assay [7], the target named is Tyrosine-protein kinase Fyn (Homo sapiens, UniProt P06241). Nature of the assay: Inhibition of human recombinant Fyn (218 to end) at 5 nM incubated for 15 mins relative to control.
Assay [8] has as its target Tyrosine-protein kinase Lyn (Homo sapiens, UniProt P07948). Description: Inhibition of human full length recombinant LYN at 50 nM by radiometric scintillation counting analysis relative to control.
For assay [9], the target named is Tyrosine-protein kinase Blk (Homo sapiens, UniProt P51451). Description: Inhibition of human full length recombinant BLK at 500 nM by radiometric scintillation counting analysis relative to control.
Assay [10] concerns the target Tyrosine-protein kinase BTK (Homo sapiens) (UniProt Q06187). Nature of the assay: Inhibition of human full length recombinant BTK at 500 nM by radiometric scintillation counting analysis relative to control.
For assay [11], the target named is Platelet-derived growth factor receptor beta (Homo sapiens) (UniProt P09619). Description: Inhibition of human recombinant PDGFRbeta (557 to end) at 5 nM by radiometric scintillation counting analysis relative to control.
In assay [12] the target is RAC-alpha serine/threonine-protein kinase (Homo sapiens) (UniProt P31749). Nature of the assay: Inhibition of human recombinant PKBalpha at 50 nM radiometric scintillation counting analysis relative to control.
The target in assay [13] is T2, Tyrosine-protein kinase ZAP-70 (Homo sapiens) (UniProt P43403).
T2 sequence (whole entry): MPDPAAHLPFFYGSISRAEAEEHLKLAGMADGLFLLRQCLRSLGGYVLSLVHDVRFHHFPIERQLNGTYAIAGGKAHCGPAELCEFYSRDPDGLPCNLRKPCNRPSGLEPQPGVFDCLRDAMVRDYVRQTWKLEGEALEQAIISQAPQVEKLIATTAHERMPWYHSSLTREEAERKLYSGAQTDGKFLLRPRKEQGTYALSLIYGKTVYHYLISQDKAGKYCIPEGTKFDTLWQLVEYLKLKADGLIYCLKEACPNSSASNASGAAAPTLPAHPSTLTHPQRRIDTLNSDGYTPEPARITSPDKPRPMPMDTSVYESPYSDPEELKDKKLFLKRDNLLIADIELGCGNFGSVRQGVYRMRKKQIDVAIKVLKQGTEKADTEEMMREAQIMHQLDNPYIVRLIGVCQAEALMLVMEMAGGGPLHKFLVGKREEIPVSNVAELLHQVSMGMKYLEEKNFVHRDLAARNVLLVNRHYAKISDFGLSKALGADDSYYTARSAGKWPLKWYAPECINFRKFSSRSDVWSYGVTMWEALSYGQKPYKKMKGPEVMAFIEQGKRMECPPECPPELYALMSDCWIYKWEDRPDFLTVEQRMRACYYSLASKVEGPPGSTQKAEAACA
Nature of the assay: Inhibition of human full length recombinant ZAP70 at 5 nM by radiometric scintillation counting analysis relative to control.

The target of assay [14] is Tyrosine-protein kinase Fgr (Homo sapiens, UniProt P09769). Description: Inhibition of human recombinant FGR (456 to 770) at 5 nM by radiometric scintillation counting analysis relative to control.
In assay [15] the target is Tyrosine-protein kinase Srms (Homo sapiens, UniProt Q9H3Y6). Description: Inhibition of human SRMS at 5 nM by radiometric scintillation counting analysis relative to control.
For assay [16], the target named is T3, Tyrosine-protein kinase TXK (Homo sapiens) (UniProt P42681).
T3 sequence (whole entry): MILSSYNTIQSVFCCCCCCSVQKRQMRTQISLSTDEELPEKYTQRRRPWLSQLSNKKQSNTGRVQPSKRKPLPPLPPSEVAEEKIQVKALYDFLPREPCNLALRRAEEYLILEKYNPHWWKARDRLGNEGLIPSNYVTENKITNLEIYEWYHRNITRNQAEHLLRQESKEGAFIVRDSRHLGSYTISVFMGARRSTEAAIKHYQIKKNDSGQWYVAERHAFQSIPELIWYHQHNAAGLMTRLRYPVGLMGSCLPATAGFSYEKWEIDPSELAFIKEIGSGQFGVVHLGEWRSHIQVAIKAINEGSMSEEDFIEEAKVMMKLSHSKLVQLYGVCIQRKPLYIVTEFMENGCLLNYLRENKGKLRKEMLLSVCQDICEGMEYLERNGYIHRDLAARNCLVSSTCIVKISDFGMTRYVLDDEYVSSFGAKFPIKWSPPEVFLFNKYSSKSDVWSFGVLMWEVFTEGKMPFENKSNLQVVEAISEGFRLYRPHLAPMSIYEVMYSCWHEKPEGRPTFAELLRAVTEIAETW
Nature of the assay: Inhibition of human recombinant Txk (256 to end) at 500 nM by radiometric scintillation counting analysis relative to control.

Sequence of Tyrosine-protein kinase Fgr (P09769 2-529 limits assumed): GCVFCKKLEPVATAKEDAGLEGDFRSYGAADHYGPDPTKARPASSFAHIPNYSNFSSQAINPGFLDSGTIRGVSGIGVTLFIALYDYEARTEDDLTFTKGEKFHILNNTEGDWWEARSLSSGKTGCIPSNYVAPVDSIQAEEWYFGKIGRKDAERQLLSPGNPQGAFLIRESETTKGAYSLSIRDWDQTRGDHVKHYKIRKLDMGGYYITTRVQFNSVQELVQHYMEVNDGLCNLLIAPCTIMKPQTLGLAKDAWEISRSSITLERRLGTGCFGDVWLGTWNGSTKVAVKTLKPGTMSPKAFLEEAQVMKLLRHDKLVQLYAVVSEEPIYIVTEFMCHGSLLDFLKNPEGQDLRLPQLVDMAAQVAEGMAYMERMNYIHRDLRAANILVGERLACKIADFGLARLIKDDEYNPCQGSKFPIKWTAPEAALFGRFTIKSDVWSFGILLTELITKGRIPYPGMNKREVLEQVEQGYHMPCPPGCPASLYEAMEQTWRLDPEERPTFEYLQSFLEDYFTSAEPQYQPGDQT
Sequence of Tyrosine-protein kinase Fyn (P06241 2-537 limits assumed): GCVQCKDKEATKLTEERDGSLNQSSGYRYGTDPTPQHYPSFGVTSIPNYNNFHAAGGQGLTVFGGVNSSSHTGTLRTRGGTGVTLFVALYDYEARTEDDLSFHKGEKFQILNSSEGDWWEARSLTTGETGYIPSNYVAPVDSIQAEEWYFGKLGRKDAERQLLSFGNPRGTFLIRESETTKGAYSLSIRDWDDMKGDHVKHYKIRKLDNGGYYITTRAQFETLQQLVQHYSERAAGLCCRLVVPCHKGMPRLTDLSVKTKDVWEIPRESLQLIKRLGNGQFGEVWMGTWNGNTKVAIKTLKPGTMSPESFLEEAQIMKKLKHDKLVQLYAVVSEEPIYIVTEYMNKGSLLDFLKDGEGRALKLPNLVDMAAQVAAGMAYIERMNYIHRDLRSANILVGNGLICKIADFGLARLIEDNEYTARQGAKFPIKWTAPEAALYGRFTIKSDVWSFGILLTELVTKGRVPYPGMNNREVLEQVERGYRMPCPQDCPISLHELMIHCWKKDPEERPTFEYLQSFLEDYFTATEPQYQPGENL
Sequence of Tyrosine-protein kinase BTK (Homo sapiens) (Q06187 whole entry): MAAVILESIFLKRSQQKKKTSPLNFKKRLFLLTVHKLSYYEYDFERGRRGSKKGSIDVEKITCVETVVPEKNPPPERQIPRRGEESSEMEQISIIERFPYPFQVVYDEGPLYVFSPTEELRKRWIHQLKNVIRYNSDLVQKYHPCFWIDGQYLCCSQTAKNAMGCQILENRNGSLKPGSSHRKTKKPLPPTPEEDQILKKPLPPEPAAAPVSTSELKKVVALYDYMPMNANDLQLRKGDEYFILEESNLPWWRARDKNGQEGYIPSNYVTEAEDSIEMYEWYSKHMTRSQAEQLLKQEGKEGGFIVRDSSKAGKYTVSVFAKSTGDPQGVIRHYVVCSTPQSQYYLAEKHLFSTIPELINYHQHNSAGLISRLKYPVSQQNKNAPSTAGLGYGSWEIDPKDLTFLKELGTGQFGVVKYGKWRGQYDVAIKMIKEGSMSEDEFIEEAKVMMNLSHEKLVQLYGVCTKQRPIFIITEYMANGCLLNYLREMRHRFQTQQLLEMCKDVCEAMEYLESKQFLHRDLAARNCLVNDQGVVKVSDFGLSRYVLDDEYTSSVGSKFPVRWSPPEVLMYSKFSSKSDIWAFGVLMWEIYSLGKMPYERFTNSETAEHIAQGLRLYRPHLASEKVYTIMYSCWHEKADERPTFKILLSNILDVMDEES
Sequence of RAC-alpha serine/threonine-protein kinase (Homo sapiens) (P31749 whole entry): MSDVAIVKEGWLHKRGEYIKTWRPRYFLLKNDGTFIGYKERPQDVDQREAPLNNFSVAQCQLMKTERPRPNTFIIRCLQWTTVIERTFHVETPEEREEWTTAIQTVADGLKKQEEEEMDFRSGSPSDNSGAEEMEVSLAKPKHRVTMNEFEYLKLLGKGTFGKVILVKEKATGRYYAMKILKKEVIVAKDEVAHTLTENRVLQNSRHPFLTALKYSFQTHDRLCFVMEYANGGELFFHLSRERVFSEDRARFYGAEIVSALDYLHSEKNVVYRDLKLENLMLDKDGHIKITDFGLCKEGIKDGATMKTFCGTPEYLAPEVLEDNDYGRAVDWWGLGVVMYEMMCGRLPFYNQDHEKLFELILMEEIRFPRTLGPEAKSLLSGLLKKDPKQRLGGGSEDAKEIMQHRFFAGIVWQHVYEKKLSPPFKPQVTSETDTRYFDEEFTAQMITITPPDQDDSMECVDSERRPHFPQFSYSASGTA
Sequence of Tyrosine-protein kinase Lck (P06239 2-509 limits assumed): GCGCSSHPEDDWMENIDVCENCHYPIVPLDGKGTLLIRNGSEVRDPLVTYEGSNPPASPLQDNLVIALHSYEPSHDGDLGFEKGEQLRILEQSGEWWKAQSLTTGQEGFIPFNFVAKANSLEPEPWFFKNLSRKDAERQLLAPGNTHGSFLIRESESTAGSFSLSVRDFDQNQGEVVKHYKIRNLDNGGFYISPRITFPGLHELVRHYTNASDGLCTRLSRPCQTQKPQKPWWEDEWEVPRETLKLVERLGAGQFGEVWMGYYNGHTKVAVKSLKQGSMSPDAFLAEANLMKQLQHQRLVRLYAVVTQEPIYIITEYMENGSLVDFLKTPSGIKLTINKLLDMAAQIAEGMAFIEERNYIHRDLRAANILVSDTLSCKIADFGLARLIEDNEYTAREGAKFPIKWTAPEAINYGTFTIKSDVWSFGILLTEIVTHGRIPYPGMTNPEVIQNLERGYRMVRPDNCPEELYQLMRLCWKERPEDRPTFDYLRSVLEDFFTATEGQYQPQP
Sequence of Tyrosine-protein kinase HCK (P08631 2-526 limits assumed): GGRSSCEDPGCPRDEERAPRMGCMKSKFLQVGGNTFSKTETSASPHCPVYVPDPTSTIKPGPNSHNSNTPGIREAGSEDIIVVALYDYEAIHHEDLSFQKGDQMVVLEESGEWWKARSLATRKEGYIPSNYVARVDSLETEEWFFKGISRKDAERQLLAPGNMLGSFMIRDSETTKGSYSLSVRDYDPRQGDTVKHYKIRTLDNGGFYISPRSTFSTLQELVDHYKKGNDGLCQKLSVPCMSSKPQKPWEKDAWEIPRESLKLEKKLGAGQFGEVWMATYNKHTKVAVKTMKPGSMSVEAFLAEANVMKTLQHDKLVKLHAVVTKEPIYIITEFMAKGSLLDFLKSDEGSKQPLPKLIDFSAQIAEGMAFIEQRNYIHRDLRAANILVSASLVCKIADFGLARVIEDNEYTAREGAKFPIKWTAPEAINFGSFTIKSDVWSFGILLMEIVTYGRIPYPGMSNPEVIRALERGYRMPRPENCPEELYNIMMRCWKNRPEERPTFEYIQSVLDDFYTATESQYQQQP
Sequence of Proto-oncogene tyrosine-protein kinase Src (P12931 2-536 limits assumed): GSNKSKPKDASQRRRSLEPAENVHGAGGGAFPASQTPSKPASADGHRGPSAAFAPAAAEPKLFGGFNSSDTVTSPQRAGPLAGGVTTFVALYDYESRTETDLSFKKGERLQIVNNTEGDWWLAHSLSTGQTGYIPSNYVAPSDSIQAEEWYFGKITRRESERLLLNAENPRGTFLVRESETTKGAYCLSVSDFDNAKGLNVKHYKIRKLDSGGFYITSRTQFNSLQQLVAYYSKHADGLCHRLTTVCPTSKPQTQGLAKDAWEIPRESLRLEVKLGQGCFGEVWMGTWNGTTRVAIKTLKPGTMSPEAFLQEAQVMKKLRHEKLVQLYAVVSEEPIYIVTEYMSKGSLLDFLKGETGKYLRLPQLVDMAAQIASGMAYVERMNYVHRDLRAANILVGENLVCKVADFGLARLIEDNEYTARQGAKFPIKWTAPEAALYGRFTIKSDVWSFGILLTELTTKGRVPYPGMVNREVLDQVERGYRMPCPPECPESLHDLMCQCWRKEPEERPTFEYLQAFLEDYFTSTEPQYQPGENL
Sequence of Tyrosine-protein kinase Srms (Q9H3Y6 whole entry): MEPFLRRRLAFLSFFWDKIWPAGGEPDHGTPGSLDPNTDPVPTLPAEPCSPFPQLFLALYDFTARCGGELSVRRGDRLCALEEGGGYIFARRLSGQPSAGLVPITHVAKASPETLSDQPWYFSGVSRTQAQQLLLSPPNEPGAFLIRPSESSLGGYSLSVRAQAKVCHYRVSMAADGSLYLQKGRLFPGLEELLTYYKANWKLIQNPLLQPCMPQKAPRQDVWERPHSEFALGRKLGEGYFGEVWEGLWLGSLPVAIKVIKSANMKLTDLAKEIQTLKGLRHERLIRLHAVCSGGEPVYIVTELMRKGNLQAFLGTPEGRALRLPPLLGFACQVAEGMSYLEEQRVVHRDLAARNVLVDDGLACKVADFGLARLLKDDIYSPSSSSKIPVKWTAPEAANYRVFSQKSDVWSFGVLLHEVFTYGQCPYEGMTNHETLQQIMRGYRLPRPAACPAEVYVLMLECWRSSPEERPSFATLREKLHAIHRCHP
Sequence of Tyrosine-protein kinase Blk (P51451 2-505 limits assumed): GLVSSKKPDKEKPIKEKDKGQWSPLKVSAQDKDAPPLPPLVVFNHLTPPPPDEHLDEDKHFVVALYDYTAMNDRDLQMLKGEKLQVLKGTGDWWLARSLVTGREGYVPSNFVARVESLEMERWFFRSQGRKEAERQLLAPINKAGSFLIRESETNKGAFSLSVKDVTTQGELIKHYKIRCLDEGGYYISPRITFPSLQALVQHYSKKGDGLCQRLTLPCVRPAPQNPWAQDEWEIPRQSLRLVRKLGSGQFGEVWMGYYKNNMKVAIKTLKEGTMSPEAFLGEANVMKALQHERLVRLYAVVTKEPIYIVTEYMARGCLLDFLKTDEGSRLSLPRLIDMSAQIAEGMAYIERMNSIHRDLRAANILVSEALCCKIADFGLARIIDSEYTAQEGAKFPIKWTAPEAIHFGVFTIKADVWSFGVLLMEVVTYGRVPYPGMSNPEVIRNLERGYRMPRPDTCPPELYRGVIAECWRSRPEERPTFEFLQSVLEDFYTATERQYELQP

Regarding `Cc1ccc(C(=O)Nc2ccc(OC(F)(F)F)cc2)cc1C#Cc1cc(-c2cnn(C)c2)cnc1N`, the inhibition is 39% in assay [1]; 95% in assay [2]; 9% in [3]; -4% in [4]; 98% in [5]; 93% in [6]. The inhibition in assay [7] is 21%; in assay [8], 99%; in assay [9], 99%; in assay [10], -2%; in assay [11] it was 1%; in assay [12], 2%. Also, the inhibition in assay [13] is -7%; in [14], 9%; in assay [15], -1%; in assay [16], 42%.

As to `Cc1ccc(C(=O)Nc2ccc(Cl)cc2Cl)cc1C#Cc1cc(-c2cnn(C)c2)cnc1N`, the inhibition in [1] came to 34%; in assay [2] it was 49%; in assay [3] it was 8%; in [4] it was 19%; in assay [5] it was 59%; in assay [6], 89%. The inhibition in assay [7] worked out at 2%; in [8] it was 93%; in assay [9] it was 50%; in assay [10] it was 11%; in assay [11], 12%; in [12] it was 7%. Besides, the inhibition in assay [13] was 20%; in assay [14], 4%; in assay [15] it was 7%; in assay [16], -1%.

Take `Cc1ccc(C(=O)Nc2cc(C(F)(F)F)cc(C(F)(F)F)c2)cc1C#Cc1cc(-c2cnn(C)c2)cnc1N`: the inhibition was determined as 25% in assay [1]; 98% in [2]; 2% in assay [3]; 2% in assay [4]; 60% in assay [5]; 97% in assay [6]. The inhibition in assay [7] turned out to be 29%; in [8], 105%; in assay [9], 98%; in assay [10], 49%; in assay [11] it was 18%; in assay [12] it was 2%. In addition, the inhibition was 9% in [13], 27% in assay [14], 20% in assay [15] and 86% in assay [16].

In general, inhibition refers to the relative decrease from the control value, in per cent.
